In US6387935B1, “Polycyclic dihydrothiazoles having substituted alkyl radicals in the two-position, process for their preparation, and their use as pharmaceuticals” (Aventis Pharma Deutschland GmbH, priority 1999, dated 2002):
Where “and” joins values, the source holds several entries; their conditions need not be identical. Equal entries are not always repeated.

Columns and labels:
NMRI mice = assay: Anorectic action: cumulated evaporated milk consumption after oral administration; format: in vivo; details: for cumulated milk consumption of the treated animals (male): oral dose 50 mg/kg via stomach tube, male NMRI mice after 24 hours feed withdrawal, milk offered 30 minutes after dosing, consumption determined half-hourly for 7 hours; for Reduction of the cumulated milk consumption in % of the control: oral dose 50 mg/kg, male NMRI mice, compared with untreated control animals
Protocol: The anorectic action was tested on male or female NMRI mice. After withdrawal of feed for 24 hours, the test preparation was administered via a stomach tube. Kept individually and with free access to drinking water, the animals were offered evaporated milk 30 minutes after giving the preparation. The consumption of evaporated milk was determined half-hourly for 7 hours and the general condition of the animals was observed. The measured milk consumption was compared with that of the untreated control animals.

SMILES | melting point | cumulated milk consumption of the treated animals (male) (NMRI mice; 50 mg/kg) | Reduction of the cumulated milk consumption in % of the control (NMRI mice; 50 mg/kg) [%] | cumulated milk consumption of the treated animals (male) (NMRI mice) | Reduction of the cumulated milk consumption in % of the control (NMRI mice) [%] | cumulated milk consumption of the treated animals (male) (NMRI mice; Hydrobromide, 50 mg/kg) | Reduction of the cumulated milk consumption in % of the control (NMRI mice; Hydrobromide, 50 mg/kg) [%]
CC(C)(C)c1ccc(OCC2=NC3(O)c4ccc(Cl)cc4CC3S2)cc1 (single isomer, unassigned) [Example 3] |  | 5/0.78 ml | 73 |  |  |  | 
OC12N=C(COc3ccccc3)SC1Cc1cc(Cl)ccc12 (stereo not shown) [Example 1, 6-chloro-2-phenoxymethyl-8,8a-dihydroindeno[1,2-d]thiazol-3a-ol] | 121 °C |  |  | 5/0.42 ml | 86 |  | 
Br.OC12N=C(COc3ccc(Cl)cc3Cl)SC1Cc1cc(Cl)ccc12 (stereo not shown) [Example 2] |  | 5/0.34 ml | 88 |  |  |  | 

The next lines start with results.

melting point | SMILES | cumulated milk consumption of the treated animals (male) (NMRI mice; 50 mg/kg) | Reduction of the cumulated milk consumption in % of the control (NMRI mice; 50 mg/kg) [%] | cumulated milk consumption of the treated animals (male) (NMRI mice) | Reduction of the cumulated milk consumption in % of the control (NMRI mice) [%] | cumulated milk consumption of the treated animals (male) (NMRI mice; Hydrobromide, 50 mg/kg) | Reduction of the cumulated milk consumption in % of the control (NMRI mice; Hydrobromide, 50 mg/kg) [%]
123 °C and 122 to 124 °C | CC(C)(C)c1ccc(OCC2=NC3(O)c4ccc(Cl)cc4CC3S2)cc1 (single isomer, unassigned) [Example 9, 2-(4-tert-butylphenoxymethyl)-6-chloro-8,8a-dihydroindeno [1,2-d]thiazol-3a-ol] | 5/0.26 ml | 93 |  |  |  | 
170 °C | Br.OC12N=C(COc3ccc(Cl)cc3Cl)SC1Cc1cc(Cl)ccc12 (stereo not shown) [Example 6, 6-Chloro-2-(2,4-dichlorophenoxymethyl)-8,8a-dihydroindeno[1,2-d]thiazol-3a-ol Hydrobromide] |  |  |  |  | 5/0.22 ml | 95
102 to 104 °C and 102 °C | OC12N=C(CSCc3ccccc3)SC1Cc1cc(Cl)ccc12 (stereo not shown) [Example 12, 2-Benzylsulfanylmethyl-6-chloro-8,8a-dihydroindeno [1,2-d]thiazol-3a-ol] |  |  | 5/1.36 ml | 71 |  | 
